# Results taken from US20150307520A1, “NOVEL HETEROARYL AND HETEROCYCLE COMPOUNDS, COMPOSITIONS AND METHODS THEREOF” (HUTCHISON MEDIPHARMA LIMITED, priority 2012, published 2015).
# Columns and labels:
# p110α/p85α = p110α/p85α (Homo sapiens, UniProt P42336); experiment: Transcreener KINASE Assay, kinase inhibition of p110α/p85α; assay type: biochemical; settings: read-out: PI3Kα IC50
# Summary of the method: (§1)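 Recombinant human PI3K heterodimers (p110/p85α) incubated with compound (2% DMSO final) in HEPES/NaCl/EGTA/CHAPS/MgCl2/DTT buffer with 30 uM PIP2 and 10 uM ATP (as added) for 80 min at room temperature.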
# p110β/p85α = p110β/p85α (Homo sapiens, UniProt P42338); experiment: Transcreener KINASE Assay, kinase inhibition of p110β/p85α; assay type: biochemical; settings: for PI3Kβ IH % @ 1 uM: 1 uM test compound; for IC50: read-out: PI3Kβ IC50
# Summary of the method: as §1
# p110δ/p85α = p110δ/p85α (Homo sapiens, UniProt O00329); experiment: Transcreener KINASE Assay, kinase inhibition of p110δ/p85α; assay type: biochemical; settings: for PI3Kδ IH % @ 1 uM: 1 uM test compound; for IC50: read-out: PI3Kδ IC50
# Summary of the method: as §1
# p110γ = p110γ (Homo sapiens, UniProt P48736); experiment: Transcreener KINASE Assay, kinase inhibition of p110γ; assay type: biochemical; settings: for PI3Kγ IH % @ 1 uM: 1 uM test compound; for IC50: read-out: PI3Kγ IC50
# Summary of the method: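 Recombinant PI3K isoforms (p85α complexes or p110γ alone) reacted 80 min at room temperature, then ADP detection mix added for 60 min. ADP formation read by far-red competitive fluorescence polarization immunoassay; IC50 by curve fitting.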
# PI3Kγ = PI3Kγ (Mus musculus, UniProt Q9JHG7); experiment: Acumen Assay - Raw264.7 p-AKT Assay (C5a stimulated); assay type: cell-based; settings: Raw264.7 macrophage cells, compound 30 min, stimulated with 10 nM C5a for 5 min, p-AKT (Ser473) readout; read-out: PI3Kγ cell-C5a Raw264.7 IC50
# Procedure: Acumen Assay—Raw264.7 p-AKT Assay
# Acumen® eX3 (A Multilaser Microplate Cytometer For Enhanced High Content Screening): TTP LabTech
# 3×10^4 Raw264.7 macrophage cells were seeded into 96-well plates with DMEM+10% heat-inactivated FBS at […], 90 ul/well, overnight. After starvation for 3 hr at 37° C. under 5% CO2, Raw264.7 cells were treated with 10 ul/well various concentrations of compound or 0.5% DMSO for 30 min, and then stimulated with 10 ul/well 10 nM C5a for 5 min.
# 1.) Cells were fixed 110 μL of 4% pre-warmed Paraformaldehyde (2% final), incubate for 45 min at room temperature. 2.) Remove paraformaldehyde solution. Add 100 μL of ice-cold 0.1% Triton X-100 in PBS and leave at 4° C. for 30 min. 3.) Wash once in 100 μL PBS. 4.) Incubate with 100 μL blocking buffer (1% BSA, in PBS) for 2 hours at room temperature. 5.) Wash once for 5 min with 100 ul PBS. 6.) Incubate with 40 μL 1:200 dilution of phospho AKT (Ser473) rabbit antibody in antibody dilution buffer (0.1% BSA, in PBS) overnight at 4° C. 7.) Wash for 3 times for 10 min with 100 ul PBS. 8.) Incubate for 90 min at room temperature with 50 μL of goat anti-rabbit Alex488 antibody at a 1:1,000 dilution in antibody dilution buffer (0.1% BSA, in PBS). Cover plate in foil to keep out of light. 9.) Wash for 3 times for 10 min with 100 μL PBS. 10.) Add 50 μL of 1.5 μM Propidium Iodide solution to each well to determine cell number at a 1:1,000 dilution in PBS (stock: 1.5 mM). 11.) Incubate at room temperature for 30 min. 12.) Seal the plate with a black cover-seal (supplied with plate). 13.) Load the plate into the Acumen Explorer and scan with the appropriate instrument settings.
# p110δ/p85α, sequence (O00329 whole entry): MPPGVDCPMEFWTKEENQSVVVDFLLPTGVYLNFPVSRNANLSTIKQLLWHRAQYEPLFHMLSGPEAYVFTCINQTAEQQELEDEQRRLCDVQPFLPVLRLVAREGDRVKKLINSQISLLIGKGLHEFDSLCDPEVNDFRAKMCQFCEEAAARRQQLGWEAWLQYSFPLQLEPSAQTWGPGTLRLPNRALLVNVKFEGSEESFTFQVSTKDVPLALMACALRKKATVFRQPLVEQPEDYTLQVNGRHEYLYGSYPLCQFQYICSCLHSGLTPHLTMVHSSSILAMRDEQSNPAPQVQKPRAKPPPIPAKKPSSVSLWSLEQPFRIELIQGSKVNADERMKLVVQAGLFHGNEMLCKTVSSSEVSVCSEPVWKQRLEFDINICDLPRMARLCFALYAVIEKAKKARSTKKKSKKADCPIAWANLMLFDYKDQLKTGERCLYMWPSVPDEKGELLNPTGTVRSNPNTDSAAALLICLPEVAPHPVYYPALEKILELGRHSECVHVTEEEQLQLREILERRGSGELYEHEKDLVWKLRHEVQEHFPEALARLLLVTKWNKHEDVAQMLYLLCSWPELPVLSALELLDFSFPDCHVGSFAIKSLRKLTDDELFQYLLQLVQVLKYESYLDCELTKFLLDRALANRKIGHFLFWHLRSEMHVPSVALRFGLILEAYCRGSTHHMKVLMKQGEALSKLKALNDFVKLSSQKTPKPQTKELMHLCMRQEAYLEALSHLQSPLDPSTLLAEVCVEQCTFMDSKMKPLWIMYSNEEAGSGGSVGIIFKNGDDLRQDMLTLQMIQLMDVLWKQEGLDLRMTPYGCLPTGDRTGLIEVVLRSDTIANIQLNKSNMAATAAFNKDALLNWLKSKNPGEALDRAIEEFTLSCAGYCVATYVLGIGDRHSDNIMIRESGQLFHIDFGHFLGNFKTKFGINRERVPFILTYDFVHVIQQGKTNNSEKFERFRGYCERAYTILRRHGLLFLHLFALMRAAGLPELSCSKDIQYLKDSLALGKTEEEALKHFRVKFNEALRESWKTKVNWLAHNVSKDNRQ
# p110δ/p85α, sequence (P27986 whole entry partner): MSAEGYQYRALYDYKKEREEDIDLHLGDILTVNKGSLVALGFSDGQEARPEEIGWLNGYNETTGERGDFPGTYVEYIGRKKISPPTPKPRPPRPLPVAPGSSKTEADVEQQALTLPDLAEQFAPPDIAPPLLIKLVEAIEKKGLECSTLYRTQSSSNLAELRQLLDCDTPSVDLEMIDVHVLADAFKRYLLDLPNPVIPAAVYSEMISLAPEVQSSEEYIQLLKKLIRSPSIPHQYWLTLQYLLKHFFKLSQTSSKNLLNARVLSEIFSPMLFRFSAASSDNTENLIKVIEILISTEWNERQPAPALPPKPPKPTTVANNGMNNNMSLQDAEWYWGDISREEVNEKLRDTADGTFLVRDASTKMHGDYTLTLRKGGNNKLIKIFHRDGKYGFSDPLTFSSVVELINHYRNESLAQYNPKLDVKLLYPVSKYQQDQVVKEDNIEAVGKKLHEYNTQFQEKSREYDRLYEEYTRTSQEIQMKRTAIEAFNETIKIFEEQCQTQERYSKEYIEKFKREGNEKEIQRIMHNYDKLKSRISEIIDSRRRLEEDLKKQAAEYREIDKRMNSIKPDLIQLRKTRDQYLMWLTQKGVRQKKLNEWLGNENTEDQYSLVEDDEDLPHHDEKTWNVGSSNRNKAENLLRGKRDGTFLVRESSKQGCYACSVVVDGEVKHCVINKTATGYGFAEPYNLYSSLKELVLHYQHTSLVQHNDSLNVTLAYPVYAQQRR
# p110β/p85α, sequence (P42338 whole entry): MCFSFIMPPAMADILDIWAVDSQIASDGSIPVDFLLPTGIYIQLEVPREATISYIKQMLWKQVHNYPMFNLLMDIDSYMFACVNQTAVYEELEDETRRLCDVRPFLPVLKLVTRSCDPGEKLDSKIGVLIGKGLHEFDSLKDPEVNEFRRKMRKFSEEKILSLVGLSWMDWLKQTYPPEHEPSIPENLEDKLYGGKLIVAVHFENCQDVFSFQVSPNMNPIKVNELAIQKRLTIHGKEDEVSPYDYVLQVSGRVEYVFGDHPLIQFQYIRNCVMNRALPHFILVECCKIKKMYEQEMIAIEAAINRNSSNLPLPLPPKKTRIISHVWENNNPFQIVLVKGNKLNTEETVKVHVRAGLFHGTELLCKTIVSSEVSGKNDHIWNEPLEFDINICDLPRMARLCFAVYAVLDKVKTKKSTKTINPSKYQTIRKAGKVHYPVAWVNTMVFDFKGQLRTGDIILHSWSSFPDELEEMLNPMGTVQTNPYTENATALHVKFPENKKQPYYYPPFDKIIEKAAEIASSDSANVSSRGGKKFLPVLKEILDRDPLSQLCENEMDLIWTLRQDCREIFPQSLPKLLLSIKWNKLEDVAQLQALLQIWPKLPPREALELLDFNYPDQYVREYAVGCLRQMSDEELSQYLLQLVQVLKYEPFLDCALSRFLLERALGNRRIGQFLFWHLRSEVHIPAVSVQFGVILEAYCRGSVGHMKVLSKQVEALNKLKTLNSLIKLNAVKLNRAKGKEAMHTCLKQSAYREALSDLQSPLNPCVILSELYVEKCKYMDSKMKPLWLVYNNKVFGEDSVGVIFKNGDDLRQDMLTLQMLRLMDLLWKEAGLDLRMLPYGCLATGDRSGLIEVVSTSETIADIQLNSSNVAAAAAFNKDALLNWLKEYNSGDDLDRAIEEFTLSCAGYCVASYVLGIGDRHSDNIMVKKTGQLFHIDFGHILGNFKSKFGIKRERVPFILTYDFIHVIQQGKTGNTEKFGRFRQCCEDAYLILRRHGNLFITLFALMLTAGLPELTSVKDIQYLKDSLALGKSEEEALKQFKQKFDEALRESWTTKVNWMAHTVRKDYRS
# p110β/p85α, sequence (P27986 2-724 partner): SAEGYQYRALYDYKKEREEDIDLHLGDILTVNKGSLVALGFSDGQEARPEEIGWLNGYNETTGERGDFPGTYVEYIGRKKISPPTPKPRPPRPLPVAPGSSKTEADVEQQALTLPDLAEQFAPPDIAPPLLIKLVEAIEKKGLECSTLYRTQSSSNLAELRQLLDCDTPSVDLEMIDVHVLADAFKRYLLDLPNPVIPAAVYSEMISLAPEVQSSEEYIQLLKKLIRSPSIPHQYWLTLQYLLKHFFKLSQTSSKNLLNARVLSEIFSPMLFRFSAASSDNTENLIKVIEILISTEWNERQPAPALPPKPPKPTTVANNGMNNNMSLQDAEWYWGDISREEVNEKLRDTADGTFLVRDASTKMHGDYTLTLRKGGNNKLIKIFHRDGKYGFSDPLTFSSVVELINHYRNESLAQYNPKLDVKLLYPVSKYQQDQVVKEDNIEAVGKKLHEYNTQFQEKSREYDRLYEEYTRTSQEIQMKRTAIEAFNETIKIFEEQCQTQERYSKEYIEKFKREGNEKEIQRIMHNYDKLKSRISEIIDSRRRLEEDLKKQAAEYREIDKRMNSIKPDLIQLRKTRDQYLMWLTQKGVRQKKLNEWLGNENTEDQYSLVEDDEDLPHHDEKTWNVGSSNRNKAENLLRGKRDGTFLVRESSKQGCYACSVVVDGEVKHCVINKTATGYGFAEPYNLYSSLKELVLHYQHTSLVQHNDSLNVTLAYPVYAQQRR
# p110γ, sequence (P48736 whole entry, canonical isoform): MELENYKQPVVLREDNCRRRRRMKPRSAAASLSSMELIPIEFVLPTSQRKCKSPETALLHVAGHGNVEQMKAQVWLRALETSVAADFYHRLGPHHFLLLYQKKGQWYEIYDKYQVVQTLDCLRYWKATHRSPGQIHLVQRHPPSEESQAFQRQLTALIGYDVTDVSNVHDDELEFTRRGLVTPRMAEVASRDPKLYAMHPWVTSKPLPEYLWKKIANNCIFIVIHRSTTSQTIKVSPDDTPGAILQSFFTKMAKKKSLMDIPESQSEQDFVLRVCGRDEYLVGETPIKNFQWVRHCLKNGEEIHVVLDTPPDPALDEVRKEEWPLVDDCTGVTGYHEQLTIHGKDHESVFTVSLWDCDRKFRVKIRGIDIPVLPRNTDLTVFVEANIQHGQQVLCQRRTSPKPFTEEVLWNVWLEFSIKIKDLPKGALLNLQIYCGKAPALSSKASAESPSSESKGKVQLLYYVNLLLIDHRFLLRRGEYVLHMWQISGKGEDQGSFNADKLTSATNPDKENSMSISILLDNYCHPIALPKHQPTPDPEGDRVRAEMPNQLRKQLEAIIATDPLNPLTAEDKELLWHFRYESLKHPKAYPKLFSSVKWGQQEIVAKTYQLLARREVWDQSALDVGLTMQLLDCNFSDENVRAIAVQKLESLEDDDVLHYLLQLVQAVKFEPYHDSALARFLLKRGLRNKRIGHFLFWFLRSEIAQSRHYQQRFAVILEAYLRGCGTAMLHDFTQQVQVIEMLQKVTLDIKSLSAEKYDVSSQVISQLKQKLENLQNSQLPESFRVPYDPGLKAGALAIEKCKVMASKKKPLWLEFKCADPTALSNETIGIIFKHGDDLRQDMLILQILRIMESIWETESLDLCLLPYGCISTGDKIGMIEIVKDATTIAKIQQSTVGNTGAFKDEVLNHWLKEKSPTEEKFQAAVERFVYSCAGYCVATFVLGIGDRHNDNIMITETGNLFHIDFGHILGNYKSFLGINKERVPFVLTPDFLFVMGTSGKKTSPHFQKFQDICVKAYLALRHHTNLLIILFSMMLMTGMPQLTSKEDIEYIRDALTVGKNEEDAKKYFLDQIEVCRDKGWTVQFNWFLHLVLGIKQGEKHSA
SMILES,IC50 (p110α/p85α),PI3Kβ IH % @ 1 uM (p110β/p85α),IC50 (p110β/p85α),PI3Kδ IH % @ 1 uM (p110δ/p85α),IC50 (p110δ/p85α),PI3Kγ IH % @ 1 uM (p110γ),IC50 (p110γ),IC50 (PI3Kγ)
C[C@H]1CN(c2nc(N)nc(N)c2C#N)[C@@H]1c1nn2ccc(Cl)c2c(=O)n1-c1ccc(F)cc1 [Compound 480],0.648 µM,93.6%,0.081 µM,>100%,0.003 µM,>100%,0.002 µM,0.011 µM
C[C@H]1CN(c2nc(N)nc(N)c2C#N)[C@@H]1c1nn2ccc(Cl)c2c(=O)n1-c1ccccc1 [Compound 481],0.558 µM,92.0%,0.078 µM,>100%,0.001 µM,>100%,0.003 µM,0.014 µM
